SMILES strings stand for the structures.

The test system of this assay is HBV. In words: HBV replication inhibition assay (BDNA assay). Type of assay: cell-based. To be noted: Hepatitis B virus, HepG2.2.15, 144 h, HepG2.2.15 cells, incubated with compound for 6 days, encapsidated HBV DNA from supernatant detected by branched DNA QuantiGene assay. On the procedure: HBV replication inhibition by the disclosed compounds were determined in cells infected or transfected with HBV or cells with stably integrated HBV, such as HepG2.2.15 cells (Sells et al. 1987). In this example, HepG2.2.15 cells were maintained in cell culture medium containing 10% fetal bovine serum (FBS), Geneticin, L-glutamine, penicillin and streptomycin. HepG2.2.15 cells were seeded in 96-well plates at a density of 40,000 cells/well and were treated with serially diluted compounds at a final DMSO concentration of 0.5% either alone or in combination by adding drugs in a checker box format. Cells were incubated with compounds for three days, after which medium was removed and fresh medium containing compounds was added to cells and incubated for another three days. At day 6, supernatant was removed and treated with DNase at 37° C. for 60 minutes, followed by enzyme inactivation at 75° C. for 15 minutes. Encapsidated HBV DNA was released from the virions and covalently linked HBV polymerase by incubating in lysis buffer (Affymetrix QS0010) containing 2.5 μg proteinase K at 50° C. for 40 minutes. HBV DNA was denatured by addition of 0.2 M NaOH and detected using a branched DNA (BDNA) QuantiGene assay kit according to manufacturer recommendation (Affymetrix). HBV DNA levels were also quantified using qPCR, based on amplification of encapsidated HBV DNA extraction with QuickExtraction Solution (Epicentre Biotechnologies) and amplification of HBV DNA using HBV specific PCR probes that can hybridize to HBV DNA and a fluorescently labeled probe for quantitation. In addition, cell viability of HepG2.2.15 cells incubated with test compounds alone or in combination was determined by using CellTitre-Glo reagent according to the manufacturer protocol (Promega). The mean background signal from wells containing only culture medium was subtracted from all other samples, and percent inhibition at each compound concentration was calculated by normalizing to signals from HepG2.2.15 cells treated with 0.5% DMSO using equation E1.
where DMSOave is the mean signal calculated from the wells that were treated with DMSO control (0% inhibition control) and Xi is the signal measured from the individual wells. EC50 values, effective concentrations that achieved 50% inhibitory effect, were determined by non-linear fitting using Graphpad Prism software (San Diego, Calif.) and equation E2.
where Y represents percent inhibition values and X represents the logarithm of compound concentrations.
Selected disclosed compounds were assayed in the HBV replication assay (BDNA assay), as described above, and a representative group of these active compounds is shown in Table 3.
One may read the EC50 as the concentration that produces a half-maximal response. As to `N#Cc1cc(NC(=O)N2CCc3nn4c(c3C2)-c2ncccc2CCC4)ccc1F` [Example 27, N-(3-Cyano-4-fluorophenyl)-6,7,10,11-tetrahydro-5H-pyrido[2,3-c]pyrido[4′,3′:3,4]pyrazolo[1,5-a]azepine-12(13H)-carboxamide], the EC50 stood at 170 nM.
Regarding `O=C(Nc1ccc(F)c(C(F)(F)F)c1)N1CCc2nn3c(c2C1)-c1ncccc1CCC3` [Example 28, N-(4-Fluoro-3-(trifluoromethyl)phenyl)-6,7,10,11-tetrahydro-5H-pyrido[2,3-c]pyrido[4′,3′:3,4]pyrazolo[1,5-a]azepine-12(13H)-carboxamide], the EC50 turned out to be 1800 nM.
For the molecule `Cn1cc2c(n1)-c1c3c(nn1CCC2)CCN(C(=O)Nc1ccc(F)c(Cl)c1)C3` [Example 29, N-(3-Chloro-4-fluorophenyl)-2-methyl-4,5,6,9,10,12-hexahydropyrazolo[3,4-c]pyrido[4′,3′:3,4]pyrazolo[1,5-a]azepine-11(2H)-carboxamide], the half-maximal effective concentration (EC50) came out at 3100 nM.
To `Cn1ncc2c1-c1c3c(nn1CCC2)CCN(C(=O)Nc1ccc(F)c(Cl)c1)C3` [Example 30, N-(3-Chloro-4-fluorophenyl)-1-methyl-4,5,6,9,10,12-hexahydropyrazolo[3,4-c]pyrido[4′3′:3,4]pyrazolo[1,5-a]azepine-11(1H)-carboxamide] belongs 3400 nM; to `O=C(Nc1ccc(F)c(Cl)c1)N1CCc2nn3c(c2C1)-c1nocc1CCC3` [Example 31, N-(3-Chloro-4-fluorophenyl)-5,6,9,10-tetrahydro-4H-isoxazolo[3,4-c]pyrido[4′,3′:3,4]pyrazolo[1,5-a]azepine-11(12H)-carboxamide], 9 nM.
To `O=C(Nc1ccc(F)c(Cl)c1)N1CCc2nn3c(c2C1)-c1oncc1CCC3` [Example 32, N-(3-Chloro-4-fluorophenyl)-5,6,9,10-tetrahydro-4H-isoxazolo[5,4-c]pyrido[4′,3′:3,4]pyrazolo[1,5-a]azepine-11(12H)-carboxamide] belongs 12 nM; to `N#Cc1cc(NC(=O)N2CCn3nc4c(c3C2)-c2oncc2CCC4)ccc1F` [Example 33, N-(3-Cyano-4-fluorophenyl)-5,6,9,10-tetrahydro-4H-isoxazolo[5″,4″:3′,4′]-cyclohepta[1′,2′:3,4]pyrazolo[1,5-a]pyrazine-11(12H)-carboxamide], 790 nM; to `O=C(Nc1ccc(F)c(C(F)(F)F)c1)N1CCn2nc3c(c2C1)-c1oncc1CCC3` [Example 34], 440 nM.
To `N#Cc1cc(NC(=O)N2CCn3nc4c(c3C2)-c2nocc2CCC4)ccc1F` [Example 35, N-(3-Cyano-4-fluorophenyl)-5,6,9,10-tetrahydro-4H-isoxazolo[3″,4″:3′,4′]-cyclohepta[1′,2′:3,4]pyrazolo[1,5-a]pyrazine-11(12H)-carboxamide] belongs 170 nM; to `O=C(Nc1ccc(F)c(C(F)(F)F)c1)N1CCn2nc3c(c2C1)-c1nocc1CCC3` [Example 36, N-(4-Fluoro-3-(trifluoromethyl)phenyl)-5,6,9,10-tetrahydro-4H-isoxazolo[3″,4″:3′,4′]cyclohepta[1′,2′:3,4]pyrazolo[1,5-a]pyrazine-11(12H)-carboxamide], 180 nM.

The values above are taken from patent US20220153754A1 (JANSSEN SCIENCES IRELAND UNLIMITED COMPANY, priority 2019, published 2022).
